US20070101461A1, “Method for Improving Phytoremediation Treatment of a Contaminated Medium” (priority 2001, published 2007)

Key:
[1] = system: Lupinus luteus; test: toxicity test: toluene on growth of Lupinus luteus; conditions: hydroponic, 0-3000 mg per liter tested, all other exposed plants dead
[2] = system: yellow lupine; test: plant growth with toluene during hydroponic cultivation; conditions: non-inoculated plants
[3] = system: Iris pseudocarus; test: survival of plants in the presence of 2,4-D; format: in vivo; conditions: 5 mg/l 2,4-D
[4] = system: plant; conditions: cited from earlier work
[5] = system: Pseudomonas sp. VM422; test: zinc resistance phenotype, MIC on Tris minimal medium; format: cell-based; conditions: strain VM422

## Cc1ccccc1 [toluene]
[1]
  toluene concentration at which the exposed plant was not dead at the end of the third week: 100 mg per liter
[2]
  toluene dose at which non-inoculated controls showed growth reduction: 100 mg/L

## O=C(O)COc1ccc(Cl)cc1Cl [2,4-D, 2,4-dichlorophenoxyacetic acid]
[3]
  Dead plants, Non-inoculated plants + 2,4-D: 75%
  Healthy plants, Non-inoculated plants + 2,4-D: 25%

## ClC=C(Cl)Cl [TCE, tri-chloro-ethylene]
[4]
  Fate in plant (toxic, build up, or volatile): Volatile, Build-up

## [Zn] [zinc]
[5]
  MIC value for zinc: 20 mM

## ClC(Cl)=C(Cl)Cl [PER]
[4]
  Fate in plant (toxic, build up, or volatile): Volatile
